Consider six molecules from publication PMC7255104, “Receptor Characterization and Functional Activity of Pyrokinins on the Hindgut in the Adult Mosquito, Aedes aegypti” (Frontiers in Physiology, 2020).

One assay deals with T1, A. aegypti PK2-R (Aedes aegypti, UniProt V9P4J1).
T1 sequence (V9P4J1 1-638): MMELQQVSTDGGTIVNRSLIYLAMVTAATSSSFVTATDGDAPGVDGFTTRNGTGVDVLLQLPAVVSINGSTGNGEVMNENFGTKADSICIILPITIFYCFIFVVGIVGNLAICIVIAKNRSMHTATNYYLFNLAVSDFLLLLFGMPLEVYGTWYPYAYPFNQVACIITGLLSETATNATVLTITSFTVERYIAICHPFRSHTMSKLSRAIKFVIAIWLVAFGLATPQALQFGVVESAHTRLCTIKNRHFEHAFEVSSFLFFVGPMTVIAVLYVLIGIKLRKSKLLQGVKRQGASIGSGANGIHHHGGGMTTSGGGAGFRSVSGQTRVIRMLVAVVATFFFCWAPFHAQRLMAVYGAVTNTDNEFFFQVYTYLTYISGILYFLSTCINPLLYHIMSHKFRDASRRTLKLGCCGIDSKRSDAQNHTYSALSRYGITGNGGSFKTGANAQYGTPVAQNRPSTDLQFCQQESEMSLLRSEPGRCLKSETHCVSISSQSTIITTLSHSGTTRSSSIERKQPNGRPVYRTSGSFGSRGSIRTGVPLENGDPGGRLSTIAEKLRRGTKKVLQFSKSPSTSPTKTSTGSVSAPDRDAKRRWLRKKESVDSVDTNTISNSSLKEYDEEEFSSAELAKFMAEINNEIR
As to the kind of experiment: Heterologous functional receptor assay (aequorin bioluminescence), PK2-R. The format is cell-based. The settings on record: for EC50: CHO-K1 cells transiently expressing PK2-R and aequorin, luminescence normalized to 50 μM ATP, two biological replicates, 4-8 technical replicates each, read-out: EC50, activation of A. aegypti PK2-R. An excerpt:
The complete open reading frame was amplified based on the partial ([Nene et al., 2007]) and complete sequences ([Choi et al., 2013]) reported earlier for the A. aegypti PK1-R (Genbank accession: EAT35008.1) and PK2-R (Genbank accession: KC155994.1). Forward 5′-[…]-3′ (PK1-R) or 5′-[…]-3′ (PK2-R) and reverse 5′-[…]-3′ (PK1-R) or 5′-[…]-3′ (PK2-R) primers were designed over the start and stop codons (underlined), respectively, and used to amplify the complete coding sequence using Q5 High-Fidelity DNA polymerase following manufacturer recommendations (New England Biolabs, Whitby, ON). […] The resulting products were cloned into pGEM-T Easy sequencing vector, and miniprep samples were sequenced to verify base accuracy. The receptor constructs were excised using standard restriction enzyme digestion and subcloned into the mammalian expression vector, pcDNA 3.1^+ (Life Technologies, Burlington, ON, Canada). Transfection quality plasmid DNA was purified from an overnight bacterial culture using the PureLink MidiPrep Kit (Invitrogen, Burlington, ON, Canada) following manufacturer guidelines.
Chinese hamster ovary cells (CHO-K1) described previously ([Paluzzi et al., 2012]; [Gondalia et al., 2016]; [Wahedi and Paluzzi, 2018]) were grown in Dulbecco’s modified eagles medium: nutrient F12 (DMEM:F12) media containing 10% heat-inactivated fetal bovine serum (FBS; Wisent, St. Bruno, QC, Canada), 200 μg/mL geneticin, and antimycotic-antibiotic mixture as described previously ([Wahedi and Paluzzi, 2018]). […] Various concentrations of synthesized PK peptides and other peptides (purity > 90%; Genscript, Piscataway, NJ, United States) were prepared in BSA media and loaded in quadruplicate into white 96-well luminescence plates (Greiner Bio-One, Germany).
Luminescence responses to A. aegypti CAPA-1 (GPTVGLFAFPRV-NH2), CAPA-2 (pQGLVPFPRV-NH2) and CAPA-PK1 (AGNSGANSGMWFGPRL-NH2) peptides, along with the R. prolixus PK2 orthologs, PK2a (NTVNFSPRL-NH2), and PK2b (SPPFAPRL-NH2) were examined. A list of peptides used in this study and sequence comparison to native A. aegypti pyrokinin peptides is found in Supplementary Table S1. Cells prepared for the functional assay were loaded into each well of the plate using an automated injector unit and luminescent response was measured with a Synergy 2 Multi-Mode Microplate Reader (BioTek, Winooski, VT, United States). Negative controls were carried out using BSA media alone whereas 50 μM ATP, which activates endogenously expressed purinoceptors ([Iredale and Hill, 1993]; [Michel et al., 1998]), was used as a positive control. Luminescence responses were normalized to ATP responses and analyzed in GraphPad Prism 7.02 (GraphPad Software, San Diego, CA, United States). EC50 values were determined using dose-response curves from multiple biological replicates.

The subject of assay [1] is isolated ilea of female A. aegypti. Kind of assay: Ileal motility assay (video recordings). Also on record: species or system Aedes aegypti. The settings on record: Figure 7, 1 μM, RhoprMIP-7 added together with 1 μM RhoprPK2b, mean of 17 preparations. As to the method:
Hindgut contraction assays were conducted on isolated […] of female A. aegypti. […] The isolated tissue was secured with minutien pins within a Sylgard-lined petri-dish. Given its high sequence similarity to endogenous A. aegypti PK2 peptides (Supplementary Table S1), we used the R. prolixus PK2b peptide ([Paluzzi and O'Donnell, 2012]), henceforth referred to as RhoprPK2b, for motility bioassays. Commercially synthesized peptides (Genscript, Piscataway, NJ, United States), […] ([…]) and RhoprPK2[…]), were used to examine myomodulatory activity. Serotonin (5-hydroxytryptamine, 5-HT; Sigma-Aldrich, Oakville, ON, Canada), previously shown to stimulate A. aegypti hindgut contractions ([Messer and Brown, 1995]), was used as a stimulatory control. Given the inhibitory properties of myoinhibitory peptides (having the consensus W(X6)W-NH2 carboxyl terminus) on insect hindgut motility ([Lange et al., 2012]), RhoprMIP-7 ([…]; Genscript, Piscataway, NJ, United States; [Paluzzi et al., 2015]) was used as an inhibitory control. […] Unlike the rectum, the mosquito ileum produces weaker contractions that we were unable to measure using an impedance converter as described above. […] The dissected gut was pinned in the midgut and rectum to allow the ileum to freely contract in saline and following treatments. Contractions were recorded for 2 min in saline that was used for baseline activity measurements, followed by three subsequent 2-min recordings, including: […] The RhoprPK2b was added along with the stimulatory or inhibitory compound (5-HT or RhoprMIP-7, respectively), to maintain its 1 μM concentration in the bath. […] To account for any potential changes in tissue contractile activity upon adding solutions to the bath, each of these variables were measured relative to baseline saline recordings of the same preparation as a ratio of change, where a value above or below one indicates an increase or a decrease, (respectively), in the rate, duration or length between each contraction in response to the treatment.

The subject of assay [2] is rectal pad epithelia of female A. aegypti. As to the kind of experiment: Scanning ion-selective electrode technique (SIET), Na+ flux. Also on record: species or system Aedes aegypti. As to the method:
Female mosquitoes were anesthetized on ice for 3 min and dissected in Ca^2+-free A. aegypti saline, as described previously ([Paluzzi et al., 2014]), to limit spontaneous hindgut contractions during ion flux measurements. The isolated rectum was then transferred to a Petri dish with saline, pre-coated with poly-L-lysine ([Paluzzi et al., 2014]) to allow the tissue to adhere to the bottom of the dish.
AedaeCAPA-PK1 or D. melanogaster Droso-leucokinin (NSVVLGKKQRFHSWG-NH2, Genscript, Piscataway, NJ, United States; provided by Prof. Dick Nässel, Stockholm University, Sweden) were solubilized in double distilled water as a 1 mM stock and then diluted in the above-mentioned Ca^2+-free A. aegypti saline to achieve a 1 μM final concentration. Control measurements were obtained by applying an equal volume of saline only, referred to as saline control treatments. […]
SIET measurements were obtained through the Automated Scanning Electrode Technique (ASET) software (Science Wares, East Falmouth, MA, United States). […] Voltage gradients were measured as the microelectrode moved perpendicularly to the tissue surface between two points separated by a distance of 100 μm. […] Following background voltage readings, the ion-selective microelectrode tip was positioned at a distance of 2 μm from the rectal pad epithelia. […] Following measurements at the rectal pad sites, background voltage readings were again recorded at a distance of 3 mm away from the tissue.
Calculation of ion flux used in this study has been described previously ([Paluzzi et al., 2014]). […] The change in flux upon treatment application was calculated by subtracting flux values obtained during saline measurements, in which a positive change indicates increased ion absorption, and a negative change represents a decrease in absorption.

Where a SMILES comes first, the peptide text is derived from it. A value given as a limit tells only on which side of the number the result lay.

As to `CC(C)C[C@H](NC(=O)CNC(=O)[C@@H](NC(=O)[C@@H](NC(=O)[C@@H]1CCCN1C(=O)CN)[C@@H](C)O)C(C)C)C(=O)N[C@@H](Cc1ccccc1)C(=O)N[C@@H](C)C(=O)N[C@@H](Cc1ccccc1)C(=O)N1CCC[C@H]1C(=O)N[C@@H](CCCNC(=N)N)C(=O)N[C@H](C(N)=O)C(C)C` [AedaeCAPA-1] (H-GPTVGLFAFPRV-NH2), the “activation of PK2-R relative to the highly potent pyrokinins” value on A. aegypti PK2-R (CHO-K1 cells expressing PK2-R, very high concentrations) is no more than 25%.

As for `CSCC[C@H](NC(=O)CNC(=O)[C@H](CO)NC(=O)[C@H](CC(N)=O)NC(=O)[C@H](C)NC(=O)CNC(=O)[C@H](CO)NC(=O)[C@H](CC(N)=O)NC(=O)CNC(=O)[C@H](C)N)C(=O)N[C@@H](Cc1c[nH]c2ccccc12)C(=O)N[C@@H](Cc1ccccc1)C(=O)NCC(=O)N1CCC[C@H]1C(=O)N[C@@H](CCCNC(=N)N)C(=O)N[C@@H](CC(C)C)C(N)=O` [AedaeCAPA-PK1] (H-AGNSGANSGMWFGPRL-NH2), the EC50 at A. aegypti PK2-R was 158 nM.

As for `CC(C)C[C@H](NC(=O)[C@H](CCCNC(=N)N)NC(=O)[C@@H]1CCCN1C(=O)[C@H](CO)NC(=O)[C@H](Cc1ccccc1)NC(=O)[C@H](CC(N)=O)NC(=O)[C@@H](NC(=O)[C@@H](NC(=O)[C@@H](N)CC(N)=O)[C@@H](C)O)C(C)C)C(N)=O` [RhoprPK2a] (H-NTVNFSPRL-NH2), the concentration for a half-maximal effect (EC50) at A. aegypti PK2-R came to 17.5 nM.

On to `CC(C)C[C@H](NC(=O)[C@H](CCCNC(=N)N)NC(=O)[C@@H]1CCCN1C(=O)[C@H](C)NC(=O)[C@H](Cc1ccccc1)NC(=O)[C@@H]1CCCN1C(=O)[C@@H]1CCCN1C(=O)[C@@H](N)CO)C(N)=O` [RhoprPK2b] (H-SPPFAPRL-NH2), for which, at A. aegypti PK2-R, the concentration giving a half-maximal response (EC50) was found to be 8.54 nM.

In the case of AWNSLHGGW-NH2 [RhoprMIP-7], in assay [1], the “duration of each ileal contraction relative to baseline” value is listed as “about 1.9 fold”, the “ileal contraction frequency relative to baseline” value is reported as 0.38 fold and the “relaxation duration (length of time between ileal contractions) relative to baseline” value was found to be 3.9 fold.

Take “NSVVLGKKQRFHSWG-NH2 [Droso-leucokinin, D. melanogaster kinin analog used in Na+ transport measurements]”: the “decrease in Na+ absorption across rectal pad epithelia relative to initial transport in saline” value in assay [2] (1 μM in Ca2+-free saline, absorptive female recta only, mean ± SEM of 10 to 14 preparations, SEM) turned out to be 201.6 ± 39.0 pmol cm^–2 s^–1. Moreover, the “fold decrease in Na+ absorption compared to saline control” value in assay [2] (1 μM, female rectal pad epithelia) was “four-fold decrease”. The “significance of change in Na+ transport versus saline alone” value in assay [2] (1 μM, one-way ANOVA and Tukey's post hoc test) was “significant”.

The EC50 is the concentration giving half of the maximal effect.
